Key:
Assay in all cases: Test B postemergence
Assay type in all cases: in vivo
Conditions in all cases: scale 0 to 100
[1] = tested on: cocklebur (Xanthium strumarium)
Description: (§1) Seeds of plant species selected from blackgrass (Alopecurus myosuroides), downy bromegrass (Bromus tectorum), green foxtail (Setaria viridis), Italian ryegrass (Lolium multiflorum), wheat (Triticum aestivum), wild oat (Avena fatua), galium (Galium aparine), bermudagrass (Cynodon dactylon), Surinam grass (Brachiaria decumbens), cocklebur (Xanthium strumarium), corn (Zea mays), large crabgrass (Digitaria sanguinalis), woolly cupgrass (Eriochloa villosa), giant foxtail (Setaria faberii), goosegrass (Eleusine indica), johnsongrass (Sorghum halepense), kochia (Kochia scoparia), lambsquarters (Chenopodium album), morningglory (Ipomoea coccinea), yellow nutsedge (Cyperus esculentus), pigweed (Amaranthus retroflexus), ragweed (Ambrosia elatior), soybean (Glycine max), velvetleaf (Abutilon theophrasti), barley (Hordeum vulgare), canarygrass (Phalaris minor), chickweed (Stellaria media), deadnettle (Lamium amplexicaule) and windgrass (Apera spica-venti) were planted in pots containing Redi-Earth® planting medium (Scotts Company, Marysville, Ohio, USA) comprising spaghnum peat moss, vermiculite, wetting agent and starter nutrients and treated postemergence with test compounds formulated in a non-phytotoxic solvent mixture which included a surfactant. Plants ranged in height from 2 to 18 cm (1- to 4-leaf stage).
(§2) Treated plants and controls were maintained in a greenhouse for 13 to 15 days, after which time all species were compared to controls and visually evaluated. Plant response ratings, summarized in Table B, are based on a scale of 0 to 100 where 0 is no effect and 100 is complete control. A dash (-) response means no test result.

[2] = tested on: downy bromegrass (Bromus tectorum)
Description: as §1, §2

[3] = tested on: johnsongrass (Sorghum halepense)
Description: as §1, §2

[4] = tested on: kochia (Kochia scoparia)
Description: as §1, §2

[5] = tested on: blackgrass (Alopecurus myosuroides)
Description: as §1, §2

[6] = tested on: large crabgrass (Digitaria sanguinalis)
Description: as §1, §2

[7] = tested on: Italian ryegrass (Lolium multiflorum)
Description: as §1, §2

[8] = tested on: bermudagrass (Cynodon dactylon)
Description: as §1, §2

[9] = tested on: green foxtail (Setaria viridis)
Description: as §1, §2

[10] = tested on: canarygrass (Phalaris minor)
Description: as §1, §2

[11] = tested on: pigweed (Amaranthus retroflexus)
Description: as §1, §2

[12] = tested on: giant foxtail (Setaria faberii)
Description: as §1, §2

[13] = tested on: goosegrass (Eleusine indica)
Description: as §1, §2

[14] = tested on: deadnettle (Lamium amplexicaule)
Description: as §1, §2

[15] = tested on: ragweed (Ambrosia elatior)
Description: as §1, §2

[16] = tested on: morningglory (Ipomoea coccinea)
Description: as §1, §2

[17] = tested on: soybean (Glycine max)
Description: as §1, §2

[18] = tested on: velvetleaf (Abutilon theophrasti)
Description: as §1, §2

[19] = tested on: lambsquarters (Chenopodium album)
Description: as §1, §2

[20] = tested on: wild oat (Avena fatua)
Description: as §1, §2

[21] = tested on: barley (Hordeum vulgare)
Description: as §1, §2

[22] = tested on: woolly cupgrass (Eriochloa villosa)
Description: as §1, §2

[23] = tested on: chickweed (Stellaria media)
Description: as §1, §2

COCCn1c(-c2cc(F)cc(F)c2)c(Cl)nc(C(=O)C2=C(O)CCCC2=O)c1=O [Compound 6, 5-chloro-6-(3,5-difluorophenyl)-3-[(2-hydroxy-6-oxo-1-cyclohexen-1-yl)carbonyl]-1-(2-methoxyethyl)-2(1H)-pyrazinone]
70: Plant response rating, Foxtail, Green ([9]; 62 g ai/ha) | Plant response rating, Canarygrass ([10]; 125 g ai/ha) | Plant response rating, Soybean ([17]; 125 g ai/ha) | Plant response rating, Barley ([21]; 250 g ai/ha)
80: Plant response rating, Johnsongrass ([3]; 31 g ai/ha) | Plant response rating, Johnsongrass ([3]; 62 g ai/ha) | Plant response rating, Pigweed ([11]; 31 g ai/ha) | Plant response rating, Foxtail, Giant ([12]; 125 g ai/ha) | Plant response rating, Goosegrass ([13]; 62 g ai/ha) | Plant response rating, Velvetleaf ([18]; 125 g ai/ha) | Plant response rating, Velvetleaf ([18]; 250 g ai/ha) | Plant response rating, Lambsquarters ([19]; 31 g ai/ha)
25: Plant response rating, Barley ([21]; 31 g ai/ha) | Plant response rating, Chickweed ([23]; 62 g ai/ha)
95: Plant response rating, Cocklebur ([1]; 125 g ai/ha) | Plant response rating, Crabgrass, Large ([6]; 125 g ai/ha) | Plant response rating, Bermudagrass ([8]; 250 g ai/ha) | Plant response rating, Pigweed ([11]; 62 g ai/ha) | Plant response rating, Foxtail, Giant ([12]; 250 g ai/ha) | Plant response rating, Goosegrass ([13]; 125 g ai/ha) | Plant response rating, Morningglory ([16]; 31 g ai/ha) | Plant response rating, Soybean ([17]; 250 g ai/ha)
85: Plant response rating, Johnsongrass ([3]; 125 g ai/ha) | Plant response rating, Crabgrass, Large ([6]; 62 g ai/ha) | Plant response rating, Foxtail, Green ([9]; 125 g ai/ha) | Plant response rating, Deadnettle ([14]; 31 g ai/ha) | Plant response rating, Deadnettle ([14]; 62 g ai/ha) | Plant response rating, Deadnettle ([14]; 125 g ai/ha)
65: Plant response rating, Foxtail, Giant ([12]; 31 g ai/ha) | Plant response rating, Foxtail, Giant ([12]; 62 g ai/ha) | Plant response rating, Ragweed ([15]; 125 g ai/ha) | Plant response rating, Soybean ([17]; 62 g ai/ha) | Plant response rating, Velvetleaf ([18]; 62 g ai/ha)
35: Plant response rating, Bromegrass, Downy ([2]; 62 g ai/ha) | Plant response rating, Barley ([21]; 62 g ai/ha)
40: Plant response rating, Kochia ([4]; 62 g ai/ha) | Plant response rating, Kochia ([4]; 125 g ai/ha) | Plant response rating, Ragweed ([15]; 31 g ai/ha) | Plant response rating, Oat, Wild ([20]; 62 g ai/ha) | Plant response rating, Oat, Wild ([20]; 125 g ai/ha)
5: Plant response rating, Kochia ([4]; 31 g ai/ha) | Plant response rating, Ryegrass, Italian ([7]; 62 g ai/ha) | Plant response rating, Bermudagrass ([8]; 31 g ai/ha)
98: Plant response rating, Crabgrass, Large ([6]; 250 g ai/ha) | Plant response rating, Foxtail, Green ([9]; 250 g ai/ha) | Plant response rating, Pigweed ([11]; 125 g ai/ha) | Plant response rating, Pigweed ([11]; 250 g ai/ha) | Plant response rating, Goosegrass ([13]; 250 g ai/ha) | Plant response rating, Ragweed ([15]; 250 g ai/ha) | Plant response rating, Lambsquarters ([19]; 62 g ai/ha)
90: Plant response rating, Canarygrass ([10]; 250 g ai/ha) | Plant response rating, Oat, Wild ([20]; 250 g ai/ha) | Plant response rating, Cupgrass, Woolly ([22]; 31 g ai/ha)
0: Plant response rating, Ryegrass, Italian ([7]; 31 g ai/ha)
75: Plant response rating, Cocklebur ([1]; 62 g ai/ha) | Plant response rating, Crabgrass, Large ([6]; 31 g ai/ha) | Plant response rating, Bermudagrass ([8]; 125 g ai/ha) | Plant response rating, Goosegrass ([13]; 31 g ai/ha) | Plant response rating, Chickweed ([23]; 250 g ai/ha)
10: Plant response rating, Oat, Wild ([20]; 31 g ai/ha) | Plant response rating, Chickweed ([23]; 31 g ai/ha)
15: Plant response rating, Bromegrass, Downy ([2]; 31 g ai/ha) | Plant response rating, Ryegrass, Italian ([7]; 125 g ai/ha)
100: Plant response rating, Cocklebur ([1]; 250 g ai/ha) | Plant response rating, Johnsongrass ([3]; 250 g ai/ha) | Plant response rating, Deadnettle ([14]; 250 g ai/ha) | Plant response rating, Morningglory ([16]; 62 g ai/ha) | Plant response rating, Morningglory ([16]; 125 g ai/ha) | Plant response rating, Morningglory ([16]; 250 g ai/ha) | Plant response rating, Lambsquarters ([19]; 125 g ai/ha) | Plant response rating, Lambsquarters ([19]; 250 g ai/ha) | Plant response rating, Cupgrass, Woolly ([22]; 62 g ai/ha) | Plant response rating, Cupgrass, Woolly ([22]; 125 g ai/ha) | Plant response rating, Cupgrass, Woolly ([22]; 250 g ai/ha)
55: Plant response rating, Blackgrass ([5]; 62 g ai/ha) | Plant response rating, Canarygrass ([10]; 31 g ai/ha) | Plant response rating, Canarygrass ([10]; 62 g ai/ha) | Plant response rating, Chickweed ([23]; 125 g ai/ha)
60: Plant response rating, Bromegrass, Downy ([2]; 250 g ai/ha) | Plant response rating, Blackgrass ([5]; 125 g ai/ha) | Plant response rating, Blackgrass ([5]; 250 g ai/ha) | Plant response rating, Ragweed ([15]; 62 g ai/ha) | Plant response rating, Velvetleaf ([18]; 31 g ai/ha)
45: Plant response rating, Kochia ([4]; 250 g ai/ha) | Plant response rating, Ryegrass, Italian ([7]; 250 g ai/ha) | Plant response rating, Bermudagrass ([8]; 62 g ai/ha) | Plant response rating, Soybean ([17]; 31 g ai/ha)
50: Plant response rating, Cocklebur ([1]; 31 g ai/ha) | Plant response rating, Bromegrass, Downy ([2]; 125 g ai/ha) | Plant response rating, Blackgrass ([5]; 31 g ai/ha) | Plant response rating, Foxtail, Green ([9]; 31 g ai/ha) | Plant response rating, Barley ([21]; 125 g ai/ha)

From patent US20140024527A1, “HERBICIDAL PYRAZINONES” (E I DU DE NEMOURS AND COMPANY, priority 2011, published 2014)
